Measured values taken from patent publication US20060063755A1, “Loxapine analogs and methods of use thereof” (priority 2004, published 2006).
pKi: −log10 of the molar value.

Assays:
hERG channel = hERG channel (Homo sapiens, UniProt Q12809); test: hERG channel current block, whole cell recording in HEK293 cells; assay type: cell-based; settings: HEK293 cells expressing hERG
Description: Other in vitro selection criteria for loxapine analogs of the invention includes hERG binding.
(Brown and Rampe (2000)).
In one embodiment of the HERG assay, the positive control (i.e., reference compound) is terfenadine (Sigma, St. Louis Mo.), which has been shown, at a concentration of 60 nM, to block HERG current by approximately 75%. Test compounds are delivered in HEPES-buffered physiological saline (HB-PS)+0.1% dimethyl sulfoxide (DMSO).
Clin. Exp. Allergy 29 Suppl 3, 174-181.
If the final DMSO concentration must be greater than 0.3%, to reach a specified test article concentration, a separate vehicle control test with an n>2 was performed at the highest final DMSO concentration.
Each cell acted as its own control. […] One concentration of the positive control article (60 nM terfenadine) was applied to two cells (n≧2).

M1 muscarinic receptor = biological target: T1, M1 muscarinic receptor (Homo sapiens, UniProt P11229); test: M1 binding assay, [3H]-scopolamine N-methyl chloride, CHO cells; settings: human recombinant
T1 construct: purchased PerkinElmer, Inc., Wellesley, Mass; host or cells: CHO cells
T1 sequence (P11229 1-460): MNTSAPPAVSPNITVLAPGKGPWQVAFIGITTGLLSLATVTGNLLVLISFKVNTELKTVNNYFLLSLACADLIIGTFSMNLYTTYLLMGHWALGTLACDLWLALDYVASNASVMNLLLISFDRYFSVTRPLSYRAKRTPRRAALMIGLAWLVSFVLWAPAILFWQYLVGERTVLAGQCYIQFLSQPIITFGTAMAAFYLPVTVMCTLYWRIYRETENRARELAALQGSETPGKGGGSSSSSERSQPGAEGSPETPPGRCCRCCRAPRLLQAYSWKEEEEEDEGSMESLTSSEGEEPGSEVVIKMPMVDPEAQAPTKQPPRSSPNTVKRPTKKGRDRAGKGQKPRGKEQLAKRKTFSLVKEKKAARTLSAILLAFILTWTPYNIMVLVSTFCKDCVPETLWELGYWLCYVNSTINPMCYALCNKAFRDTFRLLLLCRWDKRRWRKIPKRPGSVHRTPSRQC

M3 muscarinic receptor = biological target: T2, M3 muscarinic receptor (Homo sapiens, UniProt P20309); test: M3 binding assay, [3H]-scopolamine N-methyl chloride, CHO cells; settings: human recombinant
T2 construct: purchased PerkinElmer, Inc., Wellesley, Mass; host or cells: CHO cells

alpha 1 receptors = test: Alpha 1 receptor binding assay; settings: read-out: Ki Alpha1
Description: (§1) Binding assays were performed using the disclosed sleep-inducing agents and derivatives selected from those listed in Table 1 in competitive binding assays with known standards for the H1 histamine receptor, and the M1, M2, and M3 muscarinic receptors, alpha 1 and alpha 2 receptors, and D1 and D2 receptors.

alpha 2 receptors = test: Alpha 2 receptor binding assay; settings: read-out: Ki Alpha2
Description: as §1

Dopamine, D1 = Dopamine, D1 (Homo sapiens, UniProt P21728); test: Dopamine D1 (human recombinant) binding assay
Description: as §1
Dopamine, D1 (human recombinant) binding assay was performed according to published procedures. See, e.g., Jarvie, et al. J. Recept Res., 13(1-4): 573-90 (1993); and Billard, et al. Life Sciences, 35(18): 1885-93 (1984), with modifications

D2 receptors = D2 receptors (Homo sapiens, UniProt P14416); test: Dopamine D2 binding assay (human)
Description: as §1, with “receptors. […]” for “receptors.”

H1 histamine receptor = biological target: T3, H1 histamine receptor (Bos taurus, UniProt P30546); test: H1 competitive binding assay, [3H]pyrilamine, bovine cerebellar membranes; settings: bovine cerebellar membrane
T3 construct: the receptors were obtained from bovine cerebellar membrane tissue; from tissue; host or cells: bovine cerebellar membranes

M2 muscarinic receptor = biological target: T4, M2 muscarinic receptor (Homo sapiens, UniProt P08172); test: M2 binding assay, [3H]-scopolamine N-methyl chloride, CHO cells; settings: human recombinant
T4 construct: purchased PerkinElmer, Inc., Wellesley, Mass; host or cells: CHO cells
T4 sequence (P08172 1-466): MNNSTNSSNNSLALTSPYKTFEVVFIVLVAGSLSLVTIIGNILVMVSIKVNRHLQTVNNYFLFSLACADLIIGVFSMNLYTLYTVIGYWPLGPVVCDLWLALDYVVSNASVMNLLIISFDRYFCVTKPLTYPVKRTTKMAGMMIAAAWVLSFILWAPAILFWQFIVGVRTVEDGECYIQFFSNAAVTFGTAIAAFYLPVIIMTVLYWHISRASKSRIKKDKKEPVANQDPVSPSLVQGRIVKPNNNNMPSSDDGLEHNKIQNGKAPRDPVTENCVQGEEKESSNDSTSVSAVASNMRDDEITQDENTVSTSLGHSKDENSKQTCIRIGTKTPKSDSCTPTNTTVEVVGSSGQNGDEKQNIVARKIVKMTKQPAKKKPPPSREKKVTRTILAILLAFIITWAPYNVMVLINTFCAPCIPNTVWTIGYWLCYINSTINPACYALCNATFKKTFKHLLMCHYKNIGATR

Chain of Dopamine, D1 (P21728 whole entry): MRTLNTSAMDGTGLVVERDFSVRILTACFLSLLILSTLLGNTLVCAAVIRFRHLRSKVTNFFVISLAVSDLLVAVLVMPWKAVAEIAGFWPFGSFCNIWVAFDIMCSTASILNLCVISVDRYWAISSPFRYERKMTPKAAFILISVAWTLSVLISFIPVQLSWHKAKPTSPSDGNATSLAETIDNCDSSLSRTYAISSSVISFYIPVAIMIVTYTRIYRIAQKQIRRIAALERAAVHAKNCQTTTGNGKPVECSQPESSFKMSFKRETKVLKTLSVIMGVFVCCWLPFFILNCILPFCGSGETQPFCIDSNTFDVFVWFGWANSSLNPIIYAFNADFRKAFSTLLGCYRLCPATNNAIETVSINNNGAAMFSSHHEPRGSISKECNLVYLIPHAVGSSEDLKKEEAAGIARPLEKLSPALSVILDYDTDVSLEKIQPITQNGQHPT
Chain of D2 receptors (P14416 whole entry): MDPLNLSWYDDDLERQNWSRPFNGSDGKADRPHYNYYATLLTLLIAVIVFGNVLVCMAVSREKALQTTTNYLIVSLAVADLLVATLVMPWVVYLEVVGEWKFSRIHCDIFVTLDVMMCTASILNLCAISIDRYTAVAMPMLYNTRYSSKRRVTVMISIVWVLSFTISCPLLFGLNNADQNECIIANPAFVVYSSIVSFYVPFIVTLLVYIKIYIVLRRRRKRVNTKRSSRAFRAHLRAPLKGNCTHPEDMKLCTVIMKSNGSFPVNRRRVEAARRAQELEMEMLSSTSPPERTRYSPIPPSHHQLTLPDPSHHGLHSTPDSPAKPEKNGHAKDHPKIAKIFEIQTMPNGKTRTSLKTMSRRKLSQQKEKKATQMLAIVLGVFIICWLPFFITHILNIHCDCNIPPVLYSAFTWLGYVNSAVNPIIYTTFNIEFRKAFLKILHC
Chain of hERG channel (Q12809 whole entry): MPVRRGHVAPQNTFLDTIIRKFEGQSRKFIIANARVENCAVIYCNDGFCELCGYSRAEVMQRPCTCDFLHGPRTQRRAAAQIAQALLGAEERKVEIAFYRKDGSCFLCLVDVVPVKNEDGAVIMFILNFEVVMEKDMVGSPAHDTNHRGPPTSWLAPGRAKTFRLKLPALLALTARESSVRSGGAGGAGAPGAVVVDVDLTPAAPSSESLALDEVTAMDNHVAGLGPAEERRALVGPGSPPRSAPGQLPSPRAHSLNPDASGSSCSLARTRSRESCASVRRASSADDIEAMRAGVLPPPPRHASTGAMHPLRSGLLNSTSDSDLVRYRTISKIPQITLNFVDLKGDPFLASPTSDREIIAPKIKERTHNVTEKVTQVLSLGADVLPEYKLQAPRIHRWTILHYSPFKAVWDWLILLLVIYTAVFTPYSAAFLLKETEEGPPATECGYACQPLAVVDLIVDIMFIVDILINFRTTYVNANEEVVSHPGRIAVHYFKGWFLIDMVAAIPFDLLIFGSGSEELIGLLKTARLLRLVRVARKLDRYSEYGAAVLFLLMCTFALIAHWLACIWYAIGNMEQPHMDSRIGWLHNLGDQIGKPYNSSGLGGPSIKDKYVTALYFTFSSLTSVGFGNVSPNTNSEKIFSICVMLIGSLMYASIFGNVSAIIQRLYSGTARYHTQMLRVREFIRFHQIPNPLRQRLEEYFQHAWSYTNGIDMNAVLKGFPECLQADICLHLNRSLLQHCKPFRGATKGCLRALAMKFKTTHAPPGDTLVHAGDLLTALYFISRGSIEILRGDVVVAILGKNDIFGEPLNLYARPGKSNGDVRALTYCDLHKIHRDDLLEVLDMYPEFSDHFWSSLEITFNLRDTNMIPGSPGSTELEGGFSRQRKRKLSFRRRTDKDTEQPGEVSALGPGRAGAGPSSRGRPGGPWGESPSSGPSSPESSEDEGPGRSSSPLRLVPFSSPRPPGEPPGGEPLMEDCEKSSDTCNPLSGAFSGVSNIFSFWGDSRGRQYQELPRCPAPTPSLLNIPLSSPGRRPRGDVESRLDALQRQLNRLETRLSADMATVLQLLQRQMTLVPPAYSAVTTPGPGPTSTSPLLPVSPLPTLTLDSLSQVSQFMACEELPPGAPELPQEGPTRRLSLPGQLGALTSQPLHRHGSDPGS
T3 sequence (P30546 whole entry): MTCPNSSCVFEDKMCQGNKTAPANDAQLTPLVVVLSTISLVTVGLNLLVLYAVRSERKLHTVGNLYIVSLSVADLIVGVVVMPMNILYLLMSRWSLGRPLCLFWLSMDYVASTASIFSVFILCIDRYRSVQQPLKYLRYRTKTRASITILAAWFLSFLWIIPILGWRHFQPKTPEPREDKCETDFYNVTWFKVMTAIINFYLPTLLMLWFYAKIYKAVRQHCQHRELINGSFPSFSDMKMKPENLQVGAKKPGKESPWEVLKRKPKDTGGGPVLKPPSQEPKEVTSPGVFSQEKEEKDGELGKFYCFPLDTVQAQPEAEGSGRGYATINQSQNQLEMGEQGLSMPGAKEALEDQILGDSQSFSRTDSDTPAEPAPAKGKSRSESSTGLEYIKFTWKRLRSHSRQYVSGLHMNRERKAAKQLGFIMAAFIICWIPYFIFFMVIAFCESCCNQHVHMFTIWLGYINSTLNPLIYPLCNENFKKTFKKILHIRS
T2 sequence (P20309 whole entry): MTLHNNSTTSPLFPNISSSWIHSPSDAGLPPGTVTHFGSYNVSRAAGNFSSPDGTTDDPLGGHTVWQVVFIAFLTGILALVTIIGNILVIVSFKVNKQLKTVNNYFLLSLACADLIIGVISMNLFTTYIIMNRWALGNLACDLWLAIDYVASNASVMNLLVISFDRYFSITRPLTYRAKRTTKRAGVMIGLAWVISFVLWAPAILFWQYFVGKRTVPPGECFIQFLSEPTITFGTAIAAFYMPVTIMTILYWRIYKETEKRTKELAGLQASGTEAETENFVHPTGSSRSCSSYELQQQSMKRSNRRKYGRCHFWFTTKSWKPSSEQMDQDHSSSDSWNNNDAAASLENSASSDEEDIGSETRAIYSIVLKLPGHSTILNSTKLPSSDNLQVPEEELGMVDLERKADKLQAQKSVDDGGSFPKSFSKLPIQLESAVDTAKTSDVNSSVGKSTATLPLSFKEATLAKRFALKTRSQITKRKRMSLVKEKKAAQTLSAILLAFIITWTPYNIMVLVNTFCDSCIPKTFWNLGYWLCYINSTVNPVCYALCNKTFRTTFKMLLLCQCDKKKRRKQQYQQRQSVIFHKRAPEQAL

Row | Compound | hERG at 10 micromolar (% blocking of the hERG channel) (hERG channel) [%] | pKi (M1 muscarinic receptor) | pKi (M3 muscarinic receptor) | pKi (alpha 1 receptors) | pKi (alpha 2 receptors) | pKi (Dopamine, D1) | pKi (D2 receptors) | pKi (H1 histamine receptor) | pKi (M2 muscarinic receptor)
1 | COc1ccc2c(c1)Oc1ccc(OC)cc1C(N1CCN(CC(C)(C)C(=O)O)CC1)=N2 [Compound 35] | 0.10 | < 5.00 | < 5.00 | < 5.00 | < 5.00 | < 5.00 | < 5.00 | – | –
2 | COc1ccc2c(c1)N=C(N1CCN(CC(C)(C)C(=O)O)CC1)c1ccc(OC)cc1O2 [Compound 42] | 5.80 | < 5.00 | < 5.00 | < 5.00 | < 5.00 | < 5.00 | < 5.00 | 5.95 | –
3 | Cc1ccc2c(c1)Oc1ccc(Br)cc1N=C2N1CCN(CC(C)(C)C(=O)O)CC1 [Compound 44] | 65.90 | < 5.00 | < 5.00 | < 5.00 | < 5.00 | – | – | 7.38 | –
4 | Cc1ccc2c(c1)Oc1ccccc1N=C2N1CCN(CC(C)(C)C(=O)O)CC1 [Compound 46] | 20.40 | < 5.00 | < 5.00 | < 5.00 | < 5.00 | < 5.00 | < 5.00 | 7.73 | –
5 | COc1ccc2c(c1)C(N1CCN(CC(C)(C)C(=O)O)CC1)=Nc1cc(F)ccc1O2 [Compound 48] | – | < 5.00 | < 5.00 | < 5.00 | – | – | – | 7.57 | –
6 | Cc1ccc2c(c1)N=C(N1CCN(CC(C)(C)C(=O)O)CC1)c1ccc(C)cc1O2 [Compound 52] | 19.80 | < 5.00 | < 5.00 | < 5.00 | < 5.00 | – | < 5.00 | 7.26 | < 5.00
7 | COc1ccc2c(c1)C(N1CCN(CC(C)(C)C(=O)O)CC1)=Nc1cc(C)ccc1O2 [Compound 54] | 6.10 | < 5.00 | – | 5.92 | 5.24 | 5.30 | 5.97 | 7.39 | < 5.00
8 | COc1ccc2c(c1)N=C(N1CCN(CC(C)(C)C(=O)O)CC1)c1cc(C)ccc1O2 [Compound 56] | 0.30 | < 5.00 | < 5.00 | < 5.00 | < 5.00 | < 5.00 | < 5.00 | 6.93 | –
9 | COc1ccc2c(c1)C(N1CCN(CC(C)(C)C(=O)O)CC1)=Nc1ccc(C)cc1O2 [Compound 58] | 0.20 | < 5.00 | < 5.00 | < 5.00 | < 5.00 | 5.70 | 5.39 | – | < 5.00
10 | COc1ccc2c(c1)C(N1CCN(CC(C)(C)C(=O)O)CC1)=Nc1ccc(Br)cc1O2 [Compound 72] | 10.90 | < 5.00 | < 5.00 | < 5.00 | – | 6.29 | 6.33 | – | –
11 | COc1ccc2c(c1)Oc1ccc(Br)cc1N=C2N1CCN(CC(C)(C)C(=O)O)CC1 [Compound 86] | 86.90 | – | – | – | – | – | – | – | –
